Assay results: ChEMBL document CHEMBL1128746, “Aminoalkylindoles: structure-activity relationships of novel cannabinoid mimetics” (J Med Chem, 1995)

Experiments:
[1] = biological target: Cannabinoid receptor 1 (Rattus norvegicus, UniProt P20272); assay: (§1) […] [3H]WIN-55212 binding to Cannabinoid receptor 1 in rat cerebellum membranes.; type: cell membranes, Membrane
[2] = biological target: Cannabinoid receptor 1 (Rattus norvegicus) (UniProt P20272); assay: as §1; type: cell membranes; conditions: Membrane, concentration not given here
[3] = organism: Mus musculus; assay: Concentration required to inhibit electrically induced contractions in isolated mouse vas deferens preparation in vitro; type: functional

Cannabinoid receptor 1 (Rattus norvegicus), sequence (P20272 whole entry): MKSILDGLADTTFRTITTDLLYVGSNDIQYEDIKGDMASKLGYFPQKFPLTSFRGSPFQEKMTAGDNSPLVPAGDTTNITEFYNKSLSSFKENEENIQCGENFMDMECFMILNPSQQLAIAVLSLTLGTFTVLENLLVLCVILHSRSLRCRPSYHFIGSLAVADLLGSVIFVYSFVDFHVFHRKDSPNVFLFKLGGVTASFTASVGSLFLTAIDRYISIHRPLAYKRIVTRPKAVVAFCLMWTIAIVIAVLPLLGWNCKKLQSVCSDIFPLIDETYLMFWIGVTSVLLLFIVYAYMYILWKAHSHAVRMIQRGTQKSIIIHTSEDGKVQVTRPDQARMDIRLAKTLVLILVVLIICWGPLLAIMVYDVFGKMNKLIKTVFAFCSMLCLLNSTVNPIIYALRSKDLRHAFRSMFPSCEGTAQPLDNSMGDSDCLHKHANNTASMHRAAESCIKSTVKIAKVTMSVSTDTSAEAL
Cannabinoid receptor 1, sequence (P20272 whole entry): as above

Row | Compound | IC50 [1] | inhibition [2] | IC50 ([3]; Mus musculus) | IC50 [3]
1 | Cc1ccc(C(=O)c2c(C)n(CCN3CCOCC3)c3ccccc23)cc1C | 140 nM |  |  | 
2 | Cc1c(C(=O)c2cccc3ccccc23)c2ccccc2n1CCN1CCNCC1 |  | -9% |  | 
3 | COc1ccc(C(=O)c2c(C)n(CCN3CCOCC3)c3cc(C)ccc23)cc1 | 1880 nM |  | > 10000 nM | 
4 | Cc1c(C(=O)c2cccc3ccccc23)c2ccccc2n1C(C)CN1CCOCC1 (racemic; form 1) [listing 1 of 2 here] |  |  |  | 56 nM
5 | Cc1c(C(=O)c2cccc3ccccc23)c2ccc(Br)cc2n1CCN1CCOCC1 | 10 nM |  |  | 
6 | Cc1c(C(=O)c2cccc3ccccc23)c2ccccc2n1CCN1CCOC(C)C1 (stereo unspecified) | 59 nM |  | 30 nM | 
7 | Cc1ccc2c(C(=O)c3cccc4ccccc34)c(C)n(CCN3CCOCC3)c2c1 | 11 nM |  | 15 nM | 
8 | Cc1c(C(=O)c2ccc3cccnc3c2)c2ccccc2n1CCN1CCOCC1 |  |  | 88 nM | 
9 | Cc1c(C(=O)c2ccc(F)cc2)c2ccccc2n1CCN1CCOCC1 |  | 12% |  | 
10 | O=C(c1cccc2ccccc12)c1c(Cl)n(CCN2CCOCC2)c2ccccc12 | 10 nM |  | 6.1 nM | 
11 | O=C(c1ccc2occc2c1)c1cn(CCN2CCOCC2)c2ccccc12 | 138 nM |  | 28 nM | 
12 | COc1ccc(C(=O)c2cn(CCN3CCOCC3)c3ccccc23)c2ccccc12 | 1.4 nM |  |  | 
13 | CC(CN1CCOCC1)n1cc(C(=O)c2cccc3ccccc23)c2ccccc21 (racemic; form 2) [listing 1 of 2 here] |  | 94% |  | 
14 | Cc1c(C(=O)c2cccc(Cl)c2)c2ccccc2n1CCN1CCOCC1 | 1320 nM |  |  | 
15 | Cc1c(C(=O)c2cccc3ccccc23)c2ccccc2n1CCN1CCOCC1 | 19 nM |  | 15 nM | 
16 | Cc1c(C(=O)c2ccccc2O)c2ccccc2n1CCN1CCOCC1 |  | -2% |  | 
17 | CCN(CC)CCn1c(C)c(C(=O)c2ccc(OC)cc2)c2ccccc21 |  |  | > 10000 nM | 
18 | COc1ccc(C(=O)c2c(O)n(CCN3CCOCC3)c3ccccc23)cc1 |  | 1% |  | 
19 | CCc1ccc(C(=O)c2c(C)n(CCN3CCOCC3)c3ccccc23)cc1 | 306 nM |  | 71 nM | 
20 | COc1ccc(C(=O)c2c(C)n(CCN3CCSCC3)c3ccccc23)cc1 | 622 nM |  |  | 
21 | O=C(c1cccc2ccccc12)c1cn(CCCN2CCOCC2)c2ccccc12 | 43 nM |  | 9.8 nM | 
22 | Cc1cccc(C(=O)c2c(C)n(CCN3CCOCC3)c3ccccc23)c1 | 606 nM |  |  | 
23 | COc1ccc(C(=O)c2c(C)n(CCCCN3CCOCC3)c3ccccc23)cc1 |  |  | > 10000 nM | 

Row | Compound | IC50 [1] | inhibition [2] | IC50 ([3]; Mus musculus) | IC50 [3]
24 | Cc1c(C(=O)c2ccc3ncccc3c2)c2ccccc2n1CCN1CCOCC1 | 499 nM |  | 103 nM | 
25 | Cc1c(C(=O)c2ccnc3ccccc23)c2ccccc2n1CCN1CCOCC1 | 283 nM |  | 115 nM | 
26 | Cc1c(C(=O)c2ccc(C#N)c3ccccc23)c2ccccc2n1CCN1CCOCC1 | 15 nM |  | 15 nM | 
27 | O=C(c1cccc2ccccc12)c1cn(CCN2CCOCC2)c2ccc(O)cc12 | 70 nM |  | 20 nM | 
28 | COc1ccc(C(=O)c2c(C)n(CCN3CCOCC3)c3ccccc23)c2ccccc12 | 55 nM |  | 23 nM | 
29 | Cc1c(C(=O)c2cccc3ccoc23)c2ccccc2n1CCN1CCOCC1 | 71 nM |  | 17 nM | 
30 | COc1ccc(C(=O)c2c(C)n(CCN3CCOCC3)c3cc(OC)ccc23)cc1 | 1450 nM |  | > 10000 nM | 
31 | Cc1c(C(=O)c2cccc3ccccc23)c2ccccc2n1C(C)CN1CCOCC1 (racemic; form 1) [listing 2 of 2 here] |  | 79% |  | 
32 | O=C(c1ccc2ccccc2c1)c1cn(CCN2CCOCC2)c2ccccc12 | 59 nM |  | 31 nM | 
33 | COc1ccc(C(=O)c2c(C)n(CCN3CCOCC3)c3ccccc23)cc1 [PRAVADOLINE] | 3150 nM |  | 319 nM | 
34 | CC(CN1CCOCC1)n1cc(C(=O)c2cccc3ccccc23)c2ccccc21 (racemic; form 1) | 114 nM |  |  | 60 nM
35 | Cc1c(C(=O)c2cccc3ccccc23)c2ccccc2n1CCCN1CCOCC1 | 150 nM |  | 112 nM | 
36 | Cc1c(C(=O)c2ccccc2C#N)c2ccccc2n1CCN1CCOCC1 |  | 0% |  | 
37 | COc1ccc(C(=O)c2c(C)n(CCN3CCNCC3)c3ccccc23)cc1 |  |  | > 10000 nM | 
38 | Cc1c(C(=O)c2cccc3ccccc23)c2ccccc2n1C(C)CN1CCOCC1 (racemic; form 2) | 13 nM |  |  | 11 nM
39 | Cc1c(C(=O)c2cccc3cccnc23)c2ccccc2n1CCN1CCOCC1 | 274 nM |  | 129 nM | 
40 | COc1ccc(C(=O)c2c(C)n(CCN3CCOCC3C)c3ccccc23)cc1 (stereo unspecified) |  |  | > 10000 nM | 
41 | COc1ccc(C(=O)c2c(C#N)n(CCN3CCOCC3)c3ccccc23)cc1 |  | 3% |  | 
42 | Cc1c(C(=O)c2ccc(Br)c3ccccc23)c2ccccc2n1CCN1CCOCC1 | 6.9 nM |  | 34 nM | 
43 | COc1ccc(C(=O)c2c(C)[nH]c3ccccc23)cc1 |  |  | 27 nM | 
44 | COc1ccc(C(=O)c2cn(CCN3CCOCC3)c3ccccc23)cc1 | 390 nM |  | 101 nM | 
45 | O=C(c1cccc2ccccc12)c1cn(CCN2CCOCC2)c2ccccc12 | 7.8 nM |  | 6.3 nM | 
46 | Cc1c(C(=O)c2ccc3ccccc3n2)c2ccccc2n1CCN1CCOCC1 | 331 nM |  | 99 nM | 

Row | Compound | IC50 [1] | inhibition [2] | IC50 ([3]; Mus musculus) | IC50 [3]
47 | O=C(c1cn(CCN2CCOCC2)c2ccccc12)C1CCCc2ccccc21 (stereo unspecified) | 38 nM |  | 11 nM | 
48 | COc1ccc(C(=O)c2c(C)n(CCN3CCOC(C)C3)c3ccccc23)cc1 (stereo unspecified) |  |  | > 10000 nM | 
49 | CC(CN1CCOCC1)n1cc(C(=O)c2cccc3ccccc23)c2ccccc21 (racemic; form 2) [listing 2 of 2 here] |  |  |  | 19 nM
50 | O=C(c1cccc2ccccc12)c1cn(CCN2CCOCC2)c2ccc(Br)cc12 | 186 nM |  | 19 nM | 
51 | Cc1c(C(=O)c2cccc3ccccc23)c2ccccc2n1CCN1CCCCC1 | 37 nM |  | 66 nM | 
52 | Cc1c(C(=O)c2coc3ccccc23)c2ccccc2n1CCN1CCOCC1 | 110 nM |  | 52 nM | 
53 | CC(Cn1cc(C(=O)c2cccc3ccccc23)c2ccccc21)N1CCOCC1 (stereo unspecified) | 124 nM |  | 60 nM | 
54 | Cc1ccc2c(C(=O)c3cccc4ccccc34)cn(CCN3CCOCC3)c2c1 | 3.5 nM |  | 1.7 nM | 
55 | COc1ccc(C(=O)c2c(C)n(CCN(C)C)c3ccccc23)cc1 |  | 11% |  | 
56 | Cc1ccc(C(=O)c2c(C)n(CCN3CCOCC3)c3ccccc23)c2ccccc12 | 5.9 nM |  | 9.6 nM | 
57 | COc1ccc(C(=O)c2c(C)n(CCN3CCS(=O)(=O)CC3)c3ccccc23)cc1 |  | -4% |  | 
58 | Cc1ccc(C(=O)c2cn(CCN3CCOCC3)c3ccccc23)c2ccccc12 | 2.8 nM |  | 3.6 nM | 
59 | COc1ccc(C(=O)c2c(C)n(CC(=O)O)c3ccccc23)cc1 |  |  | > 10000 nM | 
60 | COc1ccc(C(=O)c2c(C)n(CC[N+]3(C)CCOCC3)c3ccccc23)cc1 |  |  | 4310 nM | 
61 | Cc1c(C(=O)c2cccc3ccccc23)c2ccccc2n1CCN1CCOCC1C (stereo unspecified) | 384 nM |  | 207 nM | 
62 | COc1ccc(C(=O)c2c(C)n(CCN3CCOCC3)c3c(F)cccc23)cc1 | 571 nM |  | 73 nM | 
63 | O=C(c1cn(CCN2CCOCC2)c2ccccc12)c1cccc2ccoc12 | 18 nM |  | 4.6 nM | 
64 | COc1ccc(C(=O)c2c(C)n(CCN3CCOCC3)c3cc(Br)ccc23)cc1 | 515 nM |  | > 10000 nM | 
65 | Cc1c(C(=O)c2ccc3ccccc3c2)c2ccccc2n1CCN1CCOCC1 | 128 nM |  | 50 nM | 
66 | O=C(c1c2ccccc2cc2ccccc12)c1cn(CCN2CCOCC2)c2ccccc12 | 2960 nM |  | > 10000 nM | 
67 | COc1ccc(C(=O)c2c(C)n(CC(C)N3CCOCC3)c3ccccc23)cc1 (stereo unspecified) |  |  | > 10000 nM | 
68 | O=C(c1ccc2ccoc2c1)c1cn(CCN2CCOCC2)c2ccccc12 | 304 nM |  | 40 nM | 
69 | CCCc1ccc(C(=O)c2c(C)n(CCN3CCOCC3)c3ccccc23)cc1 | 1130 nM |  |  | 

Row | Compound | IC50 [1] | inhibition [2] | IC50 ([3]; Mus musculus) | IC50 [3]
70 | Cc1c(C(=O)c2cccc(F)c2)c2ccccc2n1CCN1CCOCC1 |  | 38% |  | 
71 | Cc1c(C(=O)c2cccc3ncccc23)c2ccccc2n1CCN1CCOCC1 | 828 nM |  | 79 nM | 
72 | Cc1c(C(=O)c2cccc3ccccc23)c2ccccc2n1CCN1CCN(C)CC1 |  |  | > 10000 nM | 
73 | Cc1ccc(C(=O)c2c(C)n(CCN3CCOCC3)c3ccccc23)cc1 | 1770 nM |  | 442 nM | 
74 | CC(CN1CCOCC1)n1cc(C(=O)c2cccc3ccccc23)c2ccccc21 (stereo in doubt; -106) | 33 nM |  |  | 12 nM
75 | Cc1c(C(=O)c2c3ccccc3cc3ccccc23)c2ccccc2n1CCN1CCOCC1 |  |  | > 10000 nM | 
76 | Cc1c(C(=O)c2cccc(C#N)c2)c2ccccc2n1CCN1CCOCC1 |  | 1% |  | 
77 | Cc1cccc(C(=O)c2c(C)n(CCN3CCOCC3)c3ccccc23)c1C | 373 nM |  |  | 
78 | CCc1c(C(=O)c2ccc(OC)cc2)c2ccccc2n1CCN1CCOCC1 |  |  | > 10000 nM | 
79 | COc1ccccc1C(=O)c1c(C)n(CCN2CCOCC2)c2ccccc12 | 800 nM |  | 91 nM | 
80 | CCCCCc1cc(O)c2c(c1)OC(C)(C)[C@@H]1CCC(C)=C[C@@H]21 [DRONABINOL] |  |  | 4 nM | 
81 | O=C(c1ccc2ncccc2c1)c1cn(CCN2CCOCC2)c2ccccc12 | 491 nM |  | 142 nM | 
82 | O=C(c1cccc2ccccc12)c1cn(CCN2CCOCC2)c2ccc(F)cc12 | 35 nM |  | 7.3 nM | 
83 | COc1ccc(C(=O)c2c(C)n(CCN3CCOCC3)c3c(C)cccc23)cc1 | 1530 nM |  | 178 nM | 
84 | COc1ccc(C(=O)c2c(C)n(CCN)c3ccccc23)cc1 |  |  | > 10000 nM | 
85 | COc1ccc(C(=O)c2c(F)n(CCN3CCOCC3)c3ccccc23)cc1 |  | 7% |  | 
86 | Cc1c(C(=O)c2ccc(C(C)(C)C)cc2)c2ccccc2n1CCN1CCOCC1 |  | 56% |  | 
87 | O=C(c1cccc2occc12)c1cn(CCN2CCOCC2)c2ccccc12 | 24 nM |  | 7.7 nM | 
88 | Cc1c(C(=O)c2cc3ccccc3o2)c2ccccc2n1CCN1CCOCC1 | 416 nM |  | 324 nM | 
89 | Cc1c(C(=O)c2ccc3occc3c2)c2ccccc2n1CCN1CCOCC1 | 357 nM |  | 126 nM | 
90 | COc1cccc2c(C(=O)c3cccc4ccccc34)c(C)n(CCN3CCOCC3)c12 | 10 nM |  |  | 
91 | O=C(c1ccc(O)c2ccccc12)c1cn(CCN2CCOCC2)c2ccccc12 | 3.4 nM |  |  | 
